Measured values as given in US20200390100A1, “SUBSTITUTED N-HETEROCYCLYL- AND N-HETEROARYL-TETRAHYDROPYRIMIDINONES AND THE SALTS THEREOF, AND THE USE OF SAME AS HERBICIDAL ACTIVE SUBSTANCES” (Bayer Aktiengesellschaft, priority 2017, published 2020).

Key:
Abutilon theophrasti [1] = assay: Herbicidal post-emergence action (Part 2), 1280 g/ha; type: in vivo; conditions: application rate 1280 g/ha, rated visually after about 3 weeks, Table C4
In short: (§1)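 Plants at the one-leaf stage were treated on green parts with wettable powder or emulsion concentrate preparations diluted in water containing 0.5% additive. Effects were judged by eye after about 3 weeks in the greenhouse, relative to untreated plants.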

Amaranthus retroflexus [2] = assay: as above; type: in vivo; conditions: application rate 1280 g/ha, rated visually after about 3 weeks, Table C5
In short: as §1

Echinochloa crus-galli [3] = assay: as above; type: in vivo; conditions: post-emergence (Part 2), application rate 1280 g/ha, rated visually after about 3 weeks vs untreated controls
In short: as §1

Matricaria inodora [4] = assay: as above; type: in vivo; conditions: application rate 1280 g/ha, rated visually after about 3 weeks, Table C6
In short: as §1

Poa annua [5] = assay: as above; type: in vivo; conditions: application rate 1280 g/ha, rated visually after about 3 weeks, Table C2
In short: as §1

Setaria viridis [6] = assay: as above; type: in vivo; conditions: application rate 1280 g/ha, rated visually after about 3 weeks, Table C3
In short: as §1

Stellaria media [7] = assay: as above; type: in vivo; conditions: application rate 1280 g/ha, rated visually after about 3 weeks, Table C7
In short: as §1

Abutilon theophrasti [8] = assay: Herbicidal pre-emergence action (Part 2), 1280 g/ha; type: in vivo; conditions: application rate 1280 g/ha, scored visually after about 3 weeks, Table D5
In short: (§2)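 Surface soil treatment over sown weed seeds in sandy loam used formulated compound in water with 0.5% additive at a 600 L/ha spray volume. Effect was rated visually in percent versus untreated plants after about three weeks of greenhouse growth.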

Amaranthus retroflexus [9] = assay: as above; type: in vivo; conditions: application rate 1280 g/ha, scored visually after about 3 weeks, Table D6
In short: as §2

Matricaria inodora [10] = assay: as above; type: in vivo; conditions: application rate 1280 g/ha, scored visually after about 3 weeks, Table D7
In short: as §2

Poa annua [11] = assay: as above; type: in vivo; conditions: application rate 1280 g/ha, scored visually after about 3 weeks, Table D3
In short: as §2

Setaria viridis [12] = assay: as above; type: in vivo; conditions: application rate 1280 g/ha, scored visually after about 3 weeks, Table D4
In short: as §2

Stellaria media [13] = assay: as above; type: in vivo; conditions: application rate 1280 g/ha, scored visually after about 3 weeks, Table D8
In short: as §2

Abutilon theophrasti [14] = assay: Post-emergence herbicidal action, greenhouse, 320 g/ha; type: in vivo; conditions: application rate 320 g/ha, rated visually after about 3 weeks vs untreated controls
In short: (§3)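 Plants treated post-emergence at the one-leaf stage, 2 to 3 weeks after sowing in sandy loam, with WP or EC formulations plus 0.5% additive at 320 g/ha. Visual rating about 3 weeks later versus untreated controls (100% = dead, 0% = like control).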

Amaranthus retroflexus [15] = assay: as above; type: in vivo; conditions: application rate 320 g/ha, rated visually after about 3 weeks vs untreated controls
In short: as §3

Hordeum murinum [16] = assay: as above; type: in vivo; conditions: application rate 320 g/ha, rated visually after about 3 weeks vs untreated controls
In short: as §3

Lolium rigidum [17] = assay: as above; type: in vivo; conditions: application rate 320 g/ha, rated visually after about 3 weeks vs untreated controls
In short: as §3

Matricaria inodora [18] = assay: as above; type: in vivo; conditions: application rate 320 g/ha, rated visually after about 3 weeks vs untreated controls
In short: as §3

Pharbitis purpurea [19] = assay: as above; type: in vivo; conditions: application rate 320 g/ha, rated visually after about 3 weeks vs untreated controls
In short: as §3

Polygonum convolvulus [20] = assay: as above; type: in vivo; conditions: application rate 320 g/ha, rated visually after about 3 weeks vs untreated controls
In short: as §3

Setaria viridis [21] = assay: as above; type: in vivo; conditions: application rate 320 g/ha, rated visually after about 3 weeks vs untreated controls
In short: as §3

Stellaria media [22] = assay: as above; type: in vivo; conditions: application rate 320 g/ha, rated visually after about 3 weeks vs untreated controls
In short: as §3

Veronica persica [23] = assay: as above; type: in vivo; conditions: application rate 320 g/ha, rated visually after about 3 weeks vs untreated controls
In short: as §3

Viola tricolor [24] = assay: as above; type: in vivo; conditions: application rate 320 g/ha, rated visually after about 3 weeks vs untreated controls
In short: as §3

Abutilon theophrasti [25] = assay: Pre-emergence herbicidal action, greenhouse, 320 g/ha; type: in vivo; conditions: application rate 320 g/ha, scored visually after about 3 weeks vs untreated controls
In short: (§4)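 Seeds were sown in pots and covered with soil. WP or EC formulations were sprayed onto the soil surface as aqueous suspension or emulsion with 0.5% additive. Damage was scored visually after about 3 weeks as % activity against untreated controls (100% = plants dead, 0% = like control).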

Alopecurus myosuroides [26] = assay: as above; type: in vivo; conditions: application rate 320 g/ha, scored visually after about 3 weeks vs untreated controls
In short: as §4

Amaranthus retroflexus [27] = assay: as above; type: in vivo; conditions: application rate 320 g/ha, scored visually after about 3 weeks vs untreated controls
In short: as §4

Avena fatua = assay: as above; type: in vivo; conditions: application rate 320 g/ha, scored visually after about 3 weeks vs untreated controls
In short: as §4

Echinochloa crus-galli [28] = assay: as above; type: in vivo; conditions: application rate 320 g/ha, scored visually after about 3 weeks vs untreated controls
In short: as §4

Hordeum murinum [29] = assay: as above; type: in vivo; conditions: application rate 320 g/ha, Table B14
In short: as §4

Matricaria inodora [30] = assay: as above; type: in vivo; conditions: application rate 320 g/ha, scored visually after about 3 weeks vs untreated controls
In short: as §4

Pharbitis purpurea [31] = assay: as above; type: in vivo; conditions: application rate 320 g/ha, Table B12
In short: as §4

Polygonum convolvulus [32] = assay: as above; type: in vivo; conditions: application rate 320 g/ha, scored visually after about 3 weeks vs untreated controls
In short: as §4

Setaria viridis [33] = assay: as above; type: in vivo; conditions: application rate 320 g/ha, Table B11
In short: as §4

Stellaria media [34] = assay: as above; type: in vivo; conditions: application rate 320 g/ha, scored visually after about 3 weeks vs untreated controls
In short: as §4

Veronica persica [35] = assay: as above; type: in vivo; conditions: application rate 320 g/ha, Table B13
In short: as §4

Viola tricolor [36] = assay: as above; type: in vivo; conditions: application rate 320 g/ha, Table B8
In short: as §4

photosystem II (PS II) = target: T1, photosystem II (PS II) (Spinacia oleracea, UniProt P69560); assay: Measurement of PS II activity in thylakoid membranes (DCPIP reduction); type: biochemical, spinach; conditions: PS II activity in spinach thylakoid membranes, Table E1; read-out: Effect
T1 construct: the chloroplasts were osmotically ruptured and the thylakoid membranes were then obtained by centrifugation; from tissue; host or cells: fresh spinach leaves; thylakoid membrane preparation from isolated chloroplasts
In short: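 Thylakoid membranes from osmotically ruptured spinach chloroplasts in 50 mM phosphate pH 6.8, 10 mM KCl; compounds added from 100 μM DMSO solution (2.5% DMSO final), 120 μM DCPIP final. DCPIP reduction under light tracked as absorbance decrease at 595 nm over 10 min at 22 °C; % inhibition binned, metribuzin as plate standard.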

Alopecurus myosuroides [37] = assay: Post-emergence herbicidal action, greenhouse, 320 g/ha; type: in vivo; conditions: application rate 320 g/ha, rated visually after about 3 weeks vs untreated controls
In short: as §3

Digitaria sanguinalis = assay: as above; type: in vivo; conditions: application rate 320 g/ha, rated visually after about 3 weeks vs untreated controls
In short: as §3

Echinochloa crus-galli [38] = assay: Herbicidal pre-emergence action (Part 2), 1280 g/ha; type: in vivo; conditions: application rate 1280 g/ha, scored visually after about 3 weeks, Table D1
In short: as §2

Lolium rigidum [39] = assay: as above; type: in vivo; conditions: application rate 1280 g/ha, scored visually after about 3 weeks, Table D2
In short: as §2

Echinochloa crus-galli [40] = assay: Post-emergence herbicidal action, greenhouse, 320 g/ha; type: in vivo; conditions: application rate 320 g/ha, rated visually after about 3 weeks vs untreated controls
In short: as §3

SMILES	Abutilon theophrasti (Abutilon theophrasti [1])	Amaranthus retroflexus (Amaranthus retroflexus [2])	Abutilon theophrasti (efficacy in %) (Abutilon theophrasti [14])	Amaranthus retroflexus (efficacy in %) (Amaranthus retroflexus [15])	Pharbitis purpurea (efficacy in %) (Pharbitis purpurea [19])	Polygonum convolvulus (efficacy in %) (Polygonum convolvulus [20])	Setaria viridis (efficacy in %) (Setaria viridis [21])	Stellaria media (efficacy in %) (Stellaria media [22])	Viola tricolor (efficacy in %) (Viola tricolor [24])	Abutilon theophrasti (efficacy in %) (Abutilon theophrasti [25])	Alopecurus myosuroides (efficacy in %) (Alopecurus myosuroides [26])	Amaranthus retroflexus (efficacy in %) (Amaranthus retroflexus [27])	Hordeum murinum (efficacy in %) (Hordeum murinum [29])	Matricaria inodora (efficacy in %) (Matricaria inodora [30])	Pharbitis purpurea (efficacy in %) (Pharbitis purpurea [31])	Polygonum convolvulus (efficacy in %) (Polygonum convolvulus [32])	Setaria viridis (efficacy in %) (Setaria viridis [33])	Stellaria media (efficacy in %) (Stellaria media [34])	Veronica persica (efficacy in %) (Veronica persica [35])	Viola tricolor (efficacy in %) (Viola tricolor [36])	further results
CN1CCC(O)N(c2cc(C(C)(C)C)n(C)n2)C1=O (stereo not drawn) [I.1-315]	100%	100%	–	–	–	–	–	–	–	–	–	–	–	–	–	–	–	–	–	–	Echinochloa crus-galli (Echinochloa crus-galli [3]): 100%; Matricaria inodora (Matricaria inodora [4]): 90%; Poa Annua (Poa annua [5]): 100%; Setaria viridis (Setaria viridis [6]): 100%; Stellaria media (Stellaria media [7]): 100%; Abutilon theophrasti (Abutilon theophrasti [8]): 100%; Amaranthus retroflexus (Amaranthus retroflexus [9]): 100%; Matricaria inodora (Matricaria inodora [10]): 100%; Poa Annua (Poa annua [11]): 90%; Setaria viridis (Setaria viridis [12]): 100%; Stellaria media (Stellaria media [13]): 100%
CCC(=O)OC1CCN(C)C(=O)N1c1cc(C(C)(C)C)on1 (stereo not drawn) [I.3-162, 3-(5-tert-Butyl-1,2-oxazol-3-yl)-1-methyl-2-oxohexahydropyrimidin-4-yl Propionate]	–	–	100%	100%	100%	100%	90%	100%	100%	100%	80%	100%	90%	100%	100%	100%	100%	90%	100%	100%	Hordeum murinum (efficacy in %) (Hordeum murinum [16]): 90%; Lolium rigidum (efficacy in %) (Lolium rigidum [17]): 80%; Matricaria inodora (efficacy in %) (Matricaria inodora [18]): 100%; Veronica persica (efficacy in %) (Veronica persica [23]): 90%; Avena fatua (efficacy in %) (Avena fatua): 100%; Echinochloa crus-galli (efficacy in %) (Echinochloa crus-galli [28]): 80%; inhibition at 100 µM (photosystem II (PS II)): 50 to 70%
CC(C)CC(=O)OC1CCN(C)C(=O)N1c1cc(C(C)(C)C)on1 (stereo not drawn) [I.7-162, 3-(5-tert-Butyl-1,2-oxazol-3-yl)-1-methyl-2-oxohexahydropyrimidin-4-yl 3-methylbutanoate]	–	–	100%	100%	100%	90%	100%	100%	100%	100%	90%	100%	90%	100%	100%	90%	100%	100%	80%	100%	Alopecurus myosuroides (efficacy in %) (Alopecurus myosuroides [37]): 90%; Digitaria sanguinalis (efficacy in %) (Digitaria sanguinalis): 80%; Hordeum murinum (efficacy in %) (Hordeum murinum [16]): 80%; Matricaria inodora (efficacy in %) (Matricaria inodora [18]): 100%; Veronica persica (efficacy in %) (Veronica persica [23]): 90%; Avena fatua (efficacy in %) (Avena fatua): 100%; Echinochloa crus-galli (efficacy in %) (Echinochloa crus-galli [28]): 80%
CC(C)C(=O)OC1CCN(C)C(=O)N1c1cc(C(C)(C)C)on1 (stereo not drawn) [I.5-162]	100%	100%	–	–	–	–	–	–	–	–	–	–	–	–	–	–	–	–	–	–	Echinochloa crus-galli (Echinochloa crus-galli [3]): 100%; Matricaria inodora (Matricaria inodora [4]): 100%; Poa Annua (Poa annua [5]): 100%; Setaria viridis (Setaria viridis [6]): 100%; Stellaria media (Stellaria media [7]): 100%; Abutilon theophrasti (Abutilon theophrasti [8]): 100%; Amaranthus retroflexus (Amaranthus retroflexus [9]): 100%; Echinochloa crus-galli (Echinochloa crus-galli [38]): 100%; Lolium rigidum (Lolium rigidum [39]): 90%; Matricaria inodora (Matricaria inodora [10]): 100%; Poa Annua (Poa annua [11]): 100%; Setaria viridis (Setaria viridis [12]): 100%; Stellaria media (Stellaria media [13]): 100%
CC(=O)OC1CCN(C)C(=O)N1c1cc(C(C)(C)C)on1 (stereo not drawn) [I.2-162, 3-(5-tert-Butyl-1,2-oxazol-3-yl)-1-methyl-2-oxohexahydropyrimidin-4-yl Acetate]	–	–	100%	100%	100%	100%	100%	100%	100%	100%	90%	100%	80%	100%	100%	100%	90%	100%	90%	100%	Alopecurus myosuroides (efficacy in %) (Alopecurus myosuroides [37]): 80%; Echinochloa crus-galli (efficacy in %) (Echinochloa crus-galli [40]): 80%; inhibition at 100 µM (photosystem II (PS II)): 70 to 90%
